What all share (type): in vivo
Experiment [1] has as its system Setaria faberi (SETFA). As to the kind of experiment: Post-emergence glasshouse herbicide test. As to conditions: POST Application, 1000 g/h, after 13 days. In outline:
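Setaria faberi seeds were sown in standard soil in pots and grown for 8 days in a glasshouse at 24/16° C. day/night, 14 hours light and 65% humidity. Plants were then sprayed post-emergence with the active ingredient in acetone/water (50:50) containing 0.5% Tween 20, regrown under the same conditions with twice-daily watering, and scored for percentage damage after 13 days.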

The subject of experiment [2] is Amaranthus retoflexus (AMARE). As to the kind of experiment: Pre-emergence glasshouse herbicide test. As to conditions: PRE Application, 1000 g/h, after 13 days.
In experiment [3] the test system is Alopecurus myosuroides (ALOMY). The experiment in a line: Pre-emergence glasshouse herbicide test. As to conditions: PRE Application, 1000 g/h, after 13 days. In outline: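 Alopecurus myosuroides seeds were sown in standard soil in pots and kept one day in a glasshouse at 24/16° C. day/night, 14 hours light and 65% humidity. The soil was then sprayed pre-emergence with the active ingredient in acetone/water (50:50) containing 0.5% Tween 20. Plants grew on, watered twice daily, and percentage damage was scored 13 days later.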

Experiment [4] concerns Echinochloa crus-galli (ECHCG). As to the kind of experiment: Pre-emergence glasshouse herbicide test. The following applies: PRE Application, 1000 g/h, after 13 days.
Experiment [5] concerns Setaria faberi (SETFA). The experiment in a line: Pre-emergence glasshouse herbicide test. The following applies: PRE Application, 1000 g/h, after 13 days.
Experiment [6] has as its system Ipomoea hederacea (IPOHE). As to the kind of experiment: Pre-emergence glasshouse herbicide test. The following applies: PRE Application, 1000 g/h, after 13 days.
Experiment [7] has as its system Solanum nigrum (SOLNI). The experiment in a line: Pre-emergence glasshouse herbicide test. The following applies: PRE Application, 1000 g/h, after 13 days.
Experiment [8] relates to Amaranthus retoflexus (AMARE). As to the kind of experiment: Post-emergence glasshouse herbicide test. The following applies: POST Application, 1000 g/h, after 13 days.
Experiment [9] has as its system Alopecurus myosuroides (ALOMY). As to the kind of experiment: Post-emergence glasshouse herbicide test. The following applies: POST Application, 1000 g/h, after 13 days. In outline:
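Alopecurus myosuroides seeds were sown in pots of standard soil and grown for 8 days in a glasshouse at 24/16° C. day/night, 14 hours light and 65% humidity. The plants were then sprayed post-emergence with an aqueous solution made from the active ingredient in acetone/water (50:50) containing 0.5% Tween 20. Percentage plant damage was scored 13 days later.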

Experiment [10] has as its system Echinochloa crus-galli (ECHCG). The experiment in a line: Post-emergence glasshouse herbicide test. As to conditions: POST Application, 1000 g/h, after 13 days.
Experiment [11] concerns Ipomoea hederacea (IPOHE). As to the kind of experiment: Post-emergence glasshouse herbicide test. As to conditions: POST Application, 1000 g/h, after 13 days.
The test system of experiment [12] is Solanum nigrum (SOLNI). As to the kind of experiment: Post-emergence glasshouse herbicide test. As to conditions: POST Application, 1000 g/h, after 13 days. The procedure, abridged: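 Solanum nigrum seeds were sown in pots of standard soil and grown for 8 days in a glasshouse at 24/16° C. day/night, 14 hours light and 65% humidity. Plants were then sprayed post-emergence with the active ingredient formulated in acetone/water (50:50) containing 0.5% Tween 20. They were grown on under the same conditions with twice-daily watering, and percentage plant damage was scored after 13 days.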

Consider nine compounds from patent US9179678B2, “Substituted [1,2,4]triazoles and substituted tetrazoles as herbicides” (SYNGENTA LIMITED, priority 2012, dated 2015).

As for `Cc1ccccc1-n1c(=O)c(C(=O)Nc2nnnn2C)nc2ccccc21` [Compound 5.034], the “percentage damage caused to the plant, SETFA” value in the experiment with Setaria faberi (SETFA) [1] and in the experiment with Setaria faberi (SETFA) [5] was 5 (5=80-100%) throughout. For the same compound, the “percentage damage caused to the plant, AMARE” value in [2] and in [8] was 5 (5=80-100%) each time. Moreover, the “percentage damage caused to the plant, ALOMY” value is reported as 5 (5=80-100%) in [3] and 4 (4=60-79%) in [9]. Further, the “percentage damage caused to the plant, ECHCG” value in [4] and in experiment [10] was 5 (5=80-100%) throughout. In addition, the “percentage damage caused to the plant, IPOHE” value in [6] and in experiment [11] was 5 (5=80-100%) each time. In addition, the “percentage damage caused to the plant, SOLNI” value in the experiment with Solanum nigrum (SOLNI) [7] and with Solanum nigrum (SOLNI) [12] was 5 (5=80-100%) each time.

Take `Cn1nnnc1NC(=O)c1nc2ccccc2n(-c2ccc(Cl)c(Cl)c2)c1=O` [Compound 5.035]: the “percentage damage caused to the plant, SETFA” value in the experiment with Setaria faberi (SETFA) [1] is 4 (4=60-79%); in the experiment on Setaria faberi (SETFA) [5], 5 (5=80-100%). Also, the “percentage damage caused to the plant, AMARE” value in experiment [2] and in experiment [8] was 5 (5=80-100%) in each case. The “percentage damage caused to the plant, ALOMY” value was 3 (3=40-59%) in [3] and 2 (2=20-39%) in experiment [9]. In addition, the “percentage damage caused to the plant, ECHCG” value in [4] and in [10] was 2 (2=20-39%) throughout. In addition, the “percentage damage caused to the plant, IPOHE” value in [6] and in [11] was 5 (5=80-100%) in each case. Further, the “percentage damage caused to the plant, SOLNI” value in the experiment with Solanum nigrum (SOLNI) [7] and with Solanum nigrum (SOLNI) [12] was 5 (5=80-100%) each time.

In the case of `Cc1cc(-n2c(=O)c(C(=O)Nc3nnnn3C)nc3ccccc32)ccc1Cl` [Compound 5.036], the “percentage damage caused to the plant, SETFA” value with Setaria faberi (SETFA) [1] and in the experiment with Setaria faberi (SETFA) [5] was 4 (4=60-79%) each time. Also, the “percentage damage caused to the plant, AMARE” value in experiment [2] and in [8] was 5 (5=80-100%) each time. Besides, the entries for the “percentage damage caused to the plant, ALOMY” value in [3] and in [9] were 3 (3=40-59%) and 2 (2=20-39%), respectively. The “percentage damage caused to the plant, ECHCG” value is 3 (3=40-59%) in experiment [4] and 5 (5=80-100%) in [10]. Further, the “percentage damage caused to the plant, IPOHE” value in experiment [6] and in experiment [11] was 5 (5=80-100%) throughout. Also, the “percentage damage caused to the plant, SOLNI” value in the experiment on Solanum nigrum (SOLNI) [7] and with Solanum nigrum (SOLNI) [12] was 5 (5=80-100%) each time.

`Cn1nnnc1NC(=O)c1nc2ccccc2n(-c2ccc(Cl)c(C(F)(F)F)c2)c1=O` [Compound 5.037]: the “percentage damage caused to the plant, SETFA” value in the experiment with Setaria faberi (SETFA) [1] and with Setaria faberi (SETFA) [5] was 5 (5=80-100%) in each case. Besides, the “percentage damage caused to the plant, AMARE” value in [2] and in experiment [8] was 5 (5=80-100%) each time. For the same compound, the “percentage damage caused to the plant, ALOMY” value in experiment [3] and in experiment [9] was 4 (4=60-79%) each time. Moreover, the “percentage damage caused to the plant, ECHCG” value in [4] is 2 (2=20-39%); in [10] it was 5 (5=80-100%). Besides, the “percentage damage caused to the plant, IPOHE” value in experiment [6] and in experiment [11] was 5 (5=80-100%) in each case. Besides, the “percentage damage caused to the plant, SOLNI” value with Solanum nigrum (SOLNI) [7] and with Solanum nigrum (SOLNI) [12] was 5 (5=80-100%) in each case.

With `Cc1cccc(-n2c(=O)c(C(=O)Nc3ncnn3C)nc3ccccc32)n1` [Compound 5.038], the “percentage damage caused to the plant, SETFA” value is 5 (5=80-100%) with Setaria faberi (SETFA) [1] and 4 (4=60-79%) in the experiment on Setaria faberi (SETFA) [5]. In addition, the “percentage damage caused to the plant, AMARE” value in [2] and in experiment [8] was 5 (5=80-100%) throughout. The “percentage damage caused to the plant, ALOMY” value in experiment [3] is given as 4 (4=60-79%); in [9] it was 5 (5=80-100%). For the same compound, the “percentage damage caused to the plant, ECHCG” value in experiment [4] is on record as 1 (1=0-19%); in experiment [10] it was 2 (2=20-39%). For the same compound, the “percentage damage caused to the plant, IPOHE” value in experiment [6] is given as 3 (3=40-59%); in [11] it was 5 (5=80-100%). Besides, the “percentage damage caused to the plant, SOLNI” value in the experiment with Solanum nigrum (SOLNI) [7] and with Solanum nigrum (SOLNI) [12] was 5 (5=80-100%) throughout.

For the compound `COc1ccc(-n2c(=O)c(C(=O)Nc3nnnn3C)nc3ccccc32)cc1Cl` [Compound 5.039], the “percentage damage caused to the plant, SETFA” value in the experiment with Setaria faberi (SETFA) [1] is given as 1 (1=0-19%); in the experiment with Setaria faberi (SETFA) [5], 2 (2=20-39%). The “percentage damage caused to the plant, AMARE” value in [2] and in experiment [8] was 5 (5=80-100%) throughout. Further, the “percentage damage caused to the plant, ALOMY” value in [3] and in experiment [9] was 1 (1=0-19%) throughout. In addition, the “percentage damage caused to the plant, ECHCG” value in experiment [4] and in experiment [10] was 3 (3=40-59%) throughout. For the same compound, the “percentage damage caused to the plant, IPOHE” value is reported as 2 (2=20-39%) in experiment [6] and 5 (5=80-100%) in experiment [11]. The “percentage damage caused to the plant, SOLNI” value in the experiment with Solanum nigrum (SOLNI) [7] and in the experiment with Solanum nigrum (SOLNI) [12] was 5 (5=80-100%) throughout.

With `Cn1nnnc1NC(=O)c1nc2ccccc2n(-c2ccc(C(F)(F)F)c(Cl)c2)c1=O` [Compound 5.040], the “percentage damage caused to the plant, SETFA” value in the experiment on Setaria faberi (SETFA) [1] is listed as 2 (2=20-39%); with Setaria faberi (SETFA) [5] it was 1 (1=0-19%). Further, the “percentage damage caused to the plant, AMARE” value in experiment [2] and in experiment [8] was 5 (5=80-100%) throughout. Further, the “percentage damage caused to the plant, ALOMY” value was 1 (1=0-19%) in experiment [3] and 2 (2=20-39%) in experiment [9]. The “percentage damage caused to the plant, ECHCG” value in [4] is 1 (1=0-19%); in experiment [10], 2 (2=20-39%). In addition, the “percentage damage caused to the plant, IPOHE” value is 3 (3=40-59%) in experiment [6] and 5 (5=80-100%) in experiment [11]. Further, the “percentage damage caused to the plant, SOLNI” value in the experiment with Solanum nigrum (SOLNI) [7] and with Solanum nigrum (SOLNI) [12] was 5 (5=80-100%) throughout.

For the compound `Cn1ncnc1NC(=O)c1nc2ccccc2n(-c2ccccc2)c1=O` [Compound 5.041], the “percentage damage caused to the plant, SETFA” value with Setaria faberi (SETFA) [1] and with Setaria faberi (SETFA) [5] was 1 (1=0-19%) in each case. For the same compound, the “percentage damage caused to the plant, AMARE” value in [2] and in experiment [8] was 5 (5=80-100%) in each case. For the same compound, the “percentage damage caused to the plant, ALOMY” value is recorded as 1 (1=0-19%) in [3] and 2 (2=20-39%) in experiment [9]. Further, the “percentage damage caused to the plant, ECHCG” value in experiment [4] and in experiment [10] was 1 (1=0-19%) throughout. For the same compound, the entries for the “percentage damage caused to the plant, IPOHE” value in experiment [6] and in [11] were 2 (2=20-39%) and 5 (5=80-100%), respectively. The “percentage damage caused to the plant, SOLNI” value in the experiment on Solanum nigrum (SOLNI) [7] and in the experiment with Solanum nigrum (SOLNI) [12] was 5 (5=80-100%) in each case.

Turning to `Cn1nnnc1NC(=O)c1nc2ccccc2n(-c2ccc(I)cc2)c1=O` [Compound 5.042], the entries for the “percentage damage caused to the plant, SETFA” value in the experiment on Setaria faberi (SETFA) [1] and in the experiment with Setaria faberi (SETFA) [5] were 5 (5=80-100%) and 2 (2=20-39%), respectively. The “percentage damage caused to the plant, AMARE” value in experiment [2] and in experiment [8] was 5 (5=80-100%) in each case. Also, the “percentage damage caused to the plant, ALOMY” value in experiment [3] and in [9] was 2 (2=20-39%) in each case. For the same compound, the “percentage damage caused to the plant, ECHCG” value in experiment [4] and in [10] was 3 (3=40-59%) each time. Besides, the “percentage damage caused to the plant, IPOHE” value in experiment [6] and in [11] was 5 (5=80-100%) in each case. Further, the “percentage damage caused to the plant, SOLNI” value in the experiment with Solanum nigrum (SOLNI) [7] and in the experiment with Solanum nigrum (SOLNI) [12] was 5 (5=80-100%) throughout.
